For 4 compounds, IC50 results are on record in ChEMBL document CHEMBL1143309, “Bisubstrate Inhibitors of the MYST HATs Esa1 and Tip60” (Bioorg Med Chem, 2009).

The nature of experiment [1]: Inhibition of His6x-tagged yeast recombinant Esa1 (105-445) expressed in Escherichia coli BL21 (DE3) by liquid scintillation. Also on record: species or system Saccharomyces cerevisiae.
The target in experiment [2] is T1, Histone acetyltransferase KAT5 (Homo sapiens, UniProt Q92993). Briefly: Inhibition of recombinant Tip60 (1-513) expressed in Escherichia coli BL21 (DE3) by liquid scintillation.
T1 sequence (Q92993 whole entry, the tested form may be a part): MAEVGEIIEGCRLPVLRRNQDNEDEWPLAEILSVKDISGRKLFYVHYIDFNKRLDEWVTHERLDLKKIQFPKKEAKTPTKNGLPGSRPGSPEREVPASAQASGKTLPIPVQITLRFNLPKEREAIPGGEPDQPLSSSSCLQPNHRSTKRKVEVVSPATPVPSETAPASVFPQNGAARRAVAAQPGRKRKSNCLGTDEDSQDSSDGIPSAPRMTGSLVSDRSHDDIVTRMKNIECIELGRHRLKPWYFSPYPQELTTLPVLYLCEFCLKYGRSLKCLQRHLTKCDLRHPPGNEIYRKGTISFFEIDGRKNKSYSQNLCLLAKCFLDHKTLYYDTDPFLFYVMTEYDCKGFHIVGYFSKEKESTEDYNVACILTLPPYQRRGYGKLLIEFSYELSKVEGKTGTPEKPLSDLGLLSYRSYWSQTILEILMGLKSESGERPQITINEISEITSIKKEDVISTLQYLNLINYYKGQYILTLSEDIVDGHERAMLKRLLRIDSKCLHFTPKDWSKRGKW
The target in experiment [3] is Histone acetyltransferase KAT2B (Homo sapiens, UniProt Q92831). Briefly: Inhibition of PCAF HAT domain (493-658) expressed in Escherichia coli BL21 (DE3).
Chain of Histone acetyltransferase KAT2B (Q92831 whole entry, the tested form may be a part): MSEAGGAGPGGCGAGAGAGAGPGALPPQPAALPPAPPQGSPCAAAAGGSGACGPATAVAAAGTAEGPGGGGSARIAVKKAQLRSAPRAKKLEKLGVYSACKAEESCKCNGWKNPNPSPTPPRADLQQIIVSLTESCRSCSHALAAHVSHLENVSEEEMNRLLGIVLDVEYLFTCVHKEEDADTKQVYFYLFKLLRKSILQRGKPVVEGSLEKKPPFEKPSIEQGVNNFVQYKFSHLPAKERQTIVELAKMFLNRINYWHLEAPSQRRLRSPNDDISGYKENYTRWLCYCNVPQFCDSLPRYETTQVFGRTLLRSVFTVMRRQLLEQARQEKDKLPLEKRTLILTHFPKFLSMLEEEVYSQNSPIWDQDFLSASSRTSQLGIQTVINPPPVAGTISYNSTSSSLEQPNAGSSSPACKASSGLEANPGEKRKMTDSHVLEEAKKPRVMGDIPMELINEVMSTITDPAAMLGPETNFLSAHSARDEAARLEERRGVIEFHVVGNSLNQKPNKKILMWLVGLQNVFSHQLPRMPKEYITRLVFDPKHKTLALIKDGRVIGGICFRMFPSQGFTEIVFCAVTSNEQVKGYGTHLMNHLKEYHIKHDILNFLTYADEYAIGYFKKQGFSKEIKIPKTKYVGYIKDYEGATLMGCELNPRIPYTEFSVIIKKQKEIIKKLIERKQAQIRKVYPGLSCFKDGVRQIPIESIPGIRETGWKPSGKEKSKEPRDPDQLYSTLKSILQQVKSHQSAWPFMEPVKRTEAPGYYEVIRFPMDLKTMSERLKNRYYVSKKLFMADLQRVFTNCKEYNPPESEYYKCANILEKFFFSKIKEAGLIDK
In experiment [4] the target is Histone acetyltransferase p300 (Homo sapiens, UniProt Q09472). As to the kind of experiment: Inhibition of recombinant p300.
Chain of Histone acetyltransferase p300 (Q09472 whole entry): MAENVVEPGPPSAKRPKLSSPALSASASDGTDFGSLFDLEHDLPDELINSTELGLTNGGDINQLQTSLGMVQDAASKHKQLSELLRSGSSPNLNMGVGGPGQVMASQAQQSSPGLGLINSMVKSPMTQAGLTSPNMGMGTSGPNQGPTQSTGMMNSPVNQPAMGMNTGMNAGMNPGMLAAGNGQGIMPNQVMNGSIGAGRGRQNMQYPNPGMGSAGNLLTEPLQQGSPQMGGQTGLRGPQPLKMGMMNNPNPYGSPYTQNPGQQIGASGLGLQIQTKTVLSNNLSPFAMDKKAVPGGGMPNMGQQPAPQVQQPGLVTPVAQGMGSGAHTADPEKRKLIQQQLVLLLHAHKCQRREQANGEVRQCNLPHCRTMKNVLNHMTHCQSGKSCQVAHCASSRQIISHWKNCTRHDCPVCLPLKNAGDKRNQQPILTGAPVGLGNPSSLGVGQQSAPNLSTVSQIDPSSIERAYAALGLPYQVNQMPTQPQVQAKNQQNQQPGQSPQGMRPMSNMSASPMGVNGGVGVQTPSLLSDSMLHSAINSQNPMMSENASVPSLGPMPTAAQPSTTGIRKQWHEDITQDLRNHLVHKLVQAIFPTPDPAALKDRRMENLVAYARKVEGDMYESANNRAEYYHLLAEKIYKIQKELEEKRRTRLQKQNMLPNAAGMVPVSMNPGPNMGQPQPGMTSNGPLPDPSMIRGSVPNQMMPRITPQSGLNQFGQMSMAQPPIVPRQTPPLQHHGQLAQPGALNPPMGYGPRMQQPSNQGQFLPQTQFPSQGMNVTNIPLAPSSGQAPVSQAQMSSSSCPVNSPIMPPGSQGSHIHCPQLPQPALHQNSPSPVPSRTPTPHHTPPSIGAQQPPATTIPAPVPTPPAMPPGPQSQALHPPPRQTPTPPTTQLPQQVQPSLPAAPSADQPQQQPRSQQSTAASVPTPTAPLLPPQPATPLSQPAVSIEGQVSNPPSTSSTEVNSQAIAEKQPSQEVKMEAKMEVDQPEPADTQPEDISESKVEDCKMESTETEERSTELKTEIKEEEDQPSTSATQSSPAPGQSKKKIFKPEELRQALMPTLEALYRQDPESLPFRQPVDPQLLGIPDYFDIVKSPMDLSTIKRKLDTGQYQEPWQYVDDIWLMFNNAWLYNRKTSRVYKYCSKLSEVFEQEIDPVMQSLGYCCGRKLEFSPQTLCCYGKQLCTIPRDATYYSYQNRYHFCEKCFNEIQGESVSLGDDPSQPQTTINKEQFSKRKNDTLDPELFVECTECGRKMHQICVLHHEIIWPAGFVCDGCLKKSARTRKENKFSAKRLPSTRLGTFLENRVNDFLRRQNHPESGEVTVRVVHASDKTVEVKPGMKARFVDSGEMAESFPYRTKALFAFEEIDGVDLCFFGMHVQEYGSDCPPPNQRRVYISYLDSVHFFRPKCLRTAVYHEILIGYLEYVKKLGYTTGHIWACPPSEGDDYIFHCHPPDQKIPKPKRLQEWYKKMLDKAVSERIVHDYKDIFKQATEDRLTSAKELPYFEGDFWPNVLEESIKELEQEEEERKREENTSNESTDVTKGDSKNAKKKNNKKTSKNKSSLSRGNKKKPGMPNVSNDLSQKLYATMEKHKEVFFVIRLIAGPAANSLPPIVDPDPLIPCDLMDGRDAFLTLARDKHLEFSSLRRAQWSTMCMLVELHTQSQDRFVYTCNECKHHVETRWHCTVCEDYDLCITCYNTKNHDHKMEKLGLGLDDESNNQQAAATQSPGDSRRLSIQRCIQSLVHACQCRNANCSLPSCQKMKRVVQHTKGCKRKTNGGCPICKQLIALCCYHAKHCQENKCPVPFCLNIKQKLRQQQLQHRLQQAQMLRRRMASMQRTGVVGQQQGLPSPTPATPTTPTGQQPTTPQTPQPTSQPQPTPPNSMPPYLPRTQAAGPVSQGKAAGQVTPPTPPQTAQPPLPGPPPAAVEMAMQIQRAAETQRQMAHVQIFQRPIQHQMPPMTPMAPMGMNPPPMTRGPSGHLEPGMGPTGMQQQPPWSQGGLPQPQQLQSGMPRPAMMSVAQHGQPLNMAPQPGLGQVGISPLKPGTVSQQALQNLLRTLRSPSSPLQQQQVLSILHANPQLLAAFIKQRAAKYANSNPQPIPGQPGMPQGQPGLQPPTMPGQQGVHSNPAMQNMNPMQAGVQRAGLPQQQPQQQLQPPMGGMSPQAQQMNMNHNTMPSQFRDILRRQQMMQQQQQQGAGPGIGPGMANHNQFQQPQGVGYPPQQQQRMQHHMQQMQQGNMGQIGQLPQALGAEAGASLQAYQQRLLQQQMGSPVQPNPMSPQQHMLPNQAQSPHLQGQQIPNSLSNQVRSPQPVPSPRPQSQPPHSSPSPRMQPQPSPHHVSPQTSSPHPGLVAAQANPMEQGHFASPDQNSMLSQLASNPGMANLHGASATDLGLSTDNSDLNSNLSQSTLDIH
In experiment [5] the target is T1, Histone acetyltransferase KAT5. As to the kind of experiment: Inhibition of TIP60 in human HeLa cell extracts by ELISA. In general terms: An ELISA detects its analyte on a solid surface through an enzyme-linked reagent.

Structures are written as SMILES. A value given as a limit tells only on which side of the number the result lay.

Take `CC(C)(COP(=O)(O)OP(=O)(O)OC[C@H]1O[C@@H](n2cnc3c(N)ncnc32)[C@H](O)[C@@H]1OP(=O)(O)O)[C@@H](O)C(=O)NCCC(=O)NCCS` [COENZYME_A]: the IC50 (as a rule, the concentration at which inhibition is half-maximal) amounted to 68.6 µM in experiment [1], 82.3 µM in experiment [2], 41.9 µM in experiment [3] and 45.9 µM in experiment [4].

For `C=CC/C=C\C/C=C\CCCCCCCc1cccc(O)c1C(=O)O` [ANACARDIC ACID], the IC50 is 297 µM in experiment [1]; 375 µM in experiment [2]; 667 µM in experiment [3]; 9 µM in experiment [5]; > 1000 µM in experiment [4].

As to `CC(=O)N[C@@H](CCCCNC(=O)CSCCNC(=O)CCNC(=O)[C@H](O)C(C)(C)COP(=O)(O)OP(=O)(O)OC[C@H]1O[C@@H](n2cnc3c(N)ncnc32)[C@H](O)[C@@H]1OP(=O)(O)O)C(N)=O`, the IC50 in experiment [1] was determined as 7 µM; in experiment [2] it was 29.8 µM; in experiment [3], 108 µM; in experiment [4], 0.98 µM.

As to `COc1cc(/C=C/C(=O)CC(=O)/C=C/c2ccc(O)c(OC)c2)ccc1O` [CURCUMIN], the IC50 in experiment [1] was > 150 µM; in experiment [2], > 200 µM.
